Like-named read-outs stand apart in the source and are kept apart here.
Tests used:
[1] = type: in vitro ADME; conditions: for stability of samples at room temperature: 6 h; for storage of processed samples without change in precision and accuracy: 24 h; for long term stability of samples: 132 days
Experimental: For quantification of letrozole in dog and rabbit plasma a technique based on high performance liquid chromatography with fluorescence detector HPLC-FLD […] using a liquid-liquid extraction with […] as the organic solvent and resuspension for analysis in reverse phase with isocratic elution. Carvedilol was used as the internal standard and the process time was 8.5 min with a letrozole retention time of 7.8 min and applying wavelengths of 240 nm (λ excitation) and 315 nm (λ emission). The validated concentration interval was from 5 (LLOQ) to 500 ng/mL, that is with a lower limit of quantification or minimum quantifiable analyte concentration of the analytical technique of 5 ng/mL and a maximum validated concentration of 500 ng/mL. Calibration curves obtained were characterized with a correlation coefficient of over 0.99. Precision and intra-assay and inter-assay accuracy was less than 20% for the LLOQ and less than 15% for the other QCs, that is, of the other known concentration samples used as quality controls in conducting the analysis. The bioanalytical method was validated over three days and the results met the acceptance criteria described in the FDA guide: “Bioanalytical Method Validation”.
Processed samples could be stored in the sampler at 4° C. for 24 hours without noticing any change in the precision and accuracy of the analysis.

[2] = Letrozole particle size distribution by laser diffraction (Malvern Mastersizer 2000); type: physicochemical; conditions: % volume; suspended in water until obscuration of 9.41%
Experimental: If not otherwise specified, the particle size distribution was determined by light scattering technique using laser light diffraction in wet mode. It is known that particle size distribution results can be altered as a function of the material treatment such the use of high concentrate surfactant agents and/or strong force energies (vortex, sonication, etc). If nothing else is mentioned, drug is not treated and samples are prepared by direct addition to the tank under moderate stirring (2000-3500 rpm). The methodology applied on present invention to determine the drug particle size distribution mimics in a more faithfully way the behavior of the drug powder on the injectable formulation herein described than other methods which apply force energies to the sample and/or use high concentrate surfactant agents for preparing the samples in order to achieve high degrees of powder disaggregation that cannot be simulated during the manual reconstitution process of the formulation.
Letrozole particle size in formulation 2 was characterized by the technique of laser ray diffraction (Malvern Mastersizer 2000, suspended in water until obscuration of 9.41%) and had the following distribution (in % volume): d(0.1)=38.21 μm, d(0.5)=141.35 μm and d(0.9)=312.13 μm.

**Q.** For `N#Cc1ccc(C(c2ccc(C#N)cc2)n2cncn2)cc1` [Letrozole, 4,4′-(1,2,4-triazol-1-ylmethyl)dibenzonitrile], which “effect of cycles of freezing/thawing on stability” value ([1]; dog) is on record?
**A.** The value was “did not affect the stability”.

**Q.** And the “stability of samples at room temperature” value ([1]; dog)?
**A.** Its value is “up to 6 hours”.

**Q.** What about the “storage of processed samples without change in precision and accuracy” value ([1]; dog) of the same compound?
**A.** The value was 24 h.

**Q.** And the “long term stability of samples” value ([1]; dog)?
**A.** Its value is 132 days.

**Q.** And the “effect of cycles of freezing/thawing on stability” value ([1]; rabbit)?
**A.** The value was “did not affect the stability”.

**Q.** What about the “stability of samples at room temperature” value ([1]; rabbit) of the same compound?
**A.** The value was “up to 6 hours”.

**Q.** What about the “storage of processed samples without change in precision and accuracy” value ([1]; rabbit) of the same compound?
**A.** The value was 24 h.

**Q.** And the “long term stability of samples” value ([1]; rabbit)?
**A.** Its value is 132 days.

**Q.** And the “d(0.1)” value [2]?
**A.** The value was 38.21 μm.

**Q.** And the “d(0.5)” value [2]?
**A.** The value was 141.35 μm.

**Q.** What about the “d(0.9)” value [2] of the same compound?
**A.** Its value is 312.13 μm.
